Measured values reported in patent US20230313313A1, “BIOMARKERS FOR CANCER THERAPY USING MDM2 ANTAGONISTS” (OTSUKA PHARMACEUTICAL CO., LTD., priority 2020, published 2023).
“Also recorded” adds a separate entry of the source.

Experiments:
[1] = tested on: MV4-11 tumour cells in the bone marrow; assay: In vivo systemic AML mouse model, bone marrow flow cytometry; design: species or system NSG mice; details: 14 days after treatment
Description: Thus, overexpression of SKP2 is able to turn a sensitive AML cell line into a resistant cell line in vivo, providing evidence that low SKP2 is an important biomarker for sensitivity to MDM2 antagonism.
(§1) In Vivo Systemic AML Mouse Model
(§2) Female NSG Mice (6-8 weeks old) were bought from Jackson Laboratories (Bar Harbor, ME). Animals were given an intravenous injection of 5×10^6 MV4-11 cells and tumour engraftment was assessed by PCR for circulating human DNA. Mice were randomized to treatment groups based on systemic tumour burden as detected by PCR. Leukemic burden was then monitored weekly by serial bleeding followed by PCR. Mice were observed daily and euthanized humanely upon signs of terminal illness (hind limb paralysis, inability to eat/drink, moribund lethargy).
Bone Marrow Flow Cytometry
Bone marrow cells were stained with PE-CF594 Anti-Human CD45 (BD 562312), BB515 Anti-Mouse CD45 (BD 564590) and DAPI. The amount of human cells engrafted in the bone marrow is expressed as % of viable mouse CD45+ cells.

AML cell lines = assay: Activated caspase-3 by cytometry in AML cell lines; format: cell-based, human
Description: Levels of Compound 1-induced apoptosis were measured as percentage of cells with activated caspase-3. […] The extent of Compound 1-induced apoptosis is not predicted from the IC50 values obtained from the Alamar Blue proliferation assays, thus emphasising the impact of grouping cell lines specifically based on their apoptotic potential for subsequent analyses described in the following section.
Activated Caspase-3 by Cytometry
The cell lines were plated out in 6-well plates at 0.5×10^6 cells/ml (2 ml/well) the day before treatment and allowed to recover overnight in a humidified 5% CO2/air incubator at 37° C. […] 200 μl of each sample was added to duplicate wells of a 96-well plate. To one of the two wells, 50 μl of serum-free medium was added as an unstained control. […] The plate was incubated in the dark for 30 minutes before measuring fluorescent stained cells in a Guava EasyCyte HT cytometer (Merck Millipore, Kenilworth, NJ, USA). Activated caspase-3 staining was recorded in the GRN-B (green) channel, with unstained and DMSO control wells being used to set the gated stained and unstained cell populations—allowing the percentage of cells that are apoptotic to be calculated.

MV4-11 cells [2] = assay: Alamar Blue proliferation assay, MV4-11 overexpressing SKP2 vs control; format: cell-based, human; details: MV4-11 SKP2 OE compared to control
Description: (§3) Precision LentiORF Transduction:
(§4) Precision LentiORF Lentiviral Transduction Particles (Cat. OHS5900-224629438, Dharmacon, UK) were used to overexpress SKP2 in the MV4-11 AML cell line. Stable gene overexpression was established by cellular resistance to blasticidin (5 μg/ml) and was confirmed at the protein level by western blot. The Precision LentiORF control empty vector (Dharmacon, UK) served as a negative control.
The number of viable cells was determined by Alamar Blue assay (Bio-Rad, Irvine, CA, USA). All cell lines were grown and assayed in RPMI-1640+10% FBS medium.
Compounds were diluted first in DMSO and then into serum-free medium, before addition to triplicate wells of the cultured cells to give a 0.1% DMSO final concentration. […] Twenty μl of Alamar Blue™ (AbD Serotec/Bio-Rad) was added to each well and plates were then incubated for 4-6 h at 37° C. in an atmosphere of 5% CO2 and air. Plates were then read at 535 nm (excitation) and 590 nm (emission) on a SpectraMax Gemini reader (Molecular Devices, San Jose, CA, USA).

MV4-11 cells [3] = assay: In vivo systemic AML mouse model, PCR for circulating human DNA; details: MV4-11 empty vector (absence of SKP2 overexpression); NSG mice
Description: In addition to assessing the effect of SKP2 overexpression and knockdown in vitro, the impact of SKP2 on cancer proliferation was evaluated in vivo, using a disseminated AML model based on the MV4-11 cell line. To generate a systemic in vivo model of AML, NSG mice were injected in the tail vein with MV4-11 cells engineered to overexpress SKP2 or empty vector. Systemic tumour burden was assessed by PCR for circulating human DNA.
as §1, §2
PCR for Circulating Human DNA
Blood samples were collected in heparinized capillary tubes and samples were stored at −80° C. until analysis. DNA was extracted using the DNeasy Blood & Tissue Kit (Qiagen, Cat: 69504) and PCR for human DNA was run using TaqMan™ Genotyping Master Mix (ThermoFisherScientific Catalog number: 4371355) using the following primers: […]

OCI-AML3 cells = assay: Induction of apoptosis by cleaved caspase-3 cytometry, combination with IAP antagonist; format: cell-based, human; details: 0.1 μM, 72 h
Description: Cleaved caspase-3 staining was recorded in the FL1 (green) channel, with unstained and DMSO control wells being used to set the gated stained and unstained cell populations—allowing the percentage of cells that are apoptotic to be calculated.

OCI-AML3 AML cell line = assay: Apoptosis after SKP2 knockdown in a non-apoptotic AML cell line; format: cell-based, human
Description: shRNA Lentiviral Transduction:
MISSION® shRNA Lentiviral Transduction Particles (Sigma Aldrich, Pool, UK) were used to knockdown SKP2 in the OCI-AML3 AML cell line. Stable gene knockdown was established by cellular resistance to puromycin (1 μg/ml) and was confirmed at the protein level by western blot.
(§5) Apoptosis Assay by Cytometry
(§6) The cell lines were plated out in 6-well plates at 0.5×10^6 cells/ml (2 ml/well) the day before treatment and allowed to recover overnight in a humidified 5% CO2/air incubator at 37° C. […] Briefly, the cells were resuspended with the Annexin V-binding buffer and stained with Annexin V-conjugate. Samples were incubated for 20 min at room temperature in the dark. After washing with the Annexin V-binding buffer, the cells were analyzed with a flow cytometer.
(§7) For caspase 3/7 staining CellEvent™ Caspase 3/7 Green reagent (Life Technologies), a fluorogenic substrate for activated caspase-3 and -7 was used according to the manufacturer's protocol. The cells were incubated with 5 μM of substrate for 30 min at room temperature and then analyzed with a flow cytometer.

[4] = tested on: acute myeloid leukemia blasts isolated from patients; assay: Primary AML blasts sensitivity, 24 h apoptosis assay (Annexin V/PI); format: cell-based, human; details: 13 primary AML samples, two concentrations
Description: Low SKP2 expression is a biomarker for sensitivity of AML to MDM2 antagnists in patient-derived samples.
Evaluation of Primary AML Blasts Sensitivity to Compound 1
Primary frozen AML samples were purchased from NBS Biobank (Moscow, Russia). 13 primary AML samples with high blast content (>80%) were cultured in selected expansion media composed by StemSpan SFEM II media (Stemcell, #09605), 1× StemSpan CD34+ expansion supplement (Stemcell, #02691), 2% FBS and 1% Penicillin/Streptomycin.
Evaluation of SKP2 Protein Expression on Primary AML Blasts
Capillary Western analyses were performed using the ProteinSimple Wes System (San Jose, CA, USA). Antibodies used were specific for SKP2 (#4358) and TXN1 (#2429) as loading control. Samples were diluted with 0.1× Sample Buffer. Then 4 parts of diluted sample were combined with 1 part 5× Fluorescent Master Mix (containing 5× sample buffer, 5× fluorescent standard, and 200 mM DTT) and heated at 95° C. for 5 min. After this denaturation step, the prepared samples, blocking reagent, primary antibodies (1:10 dilution for SKP2, 1:100 for TXN1), HRP-conjugated secondary antibodies and chemiluminescent substrate were dispensed into designated wells in an assay plate. A biotinylated ladder provided molecular weight standards for each assay. […]

MV4-11 cells [5] = assay: Apoptosis assay by cytometry, MV4-11 overexpressing SKP2; format: cell-based, human; details: MV4-11 SKP2 OE, 48-hour treatment with 2 different concentrations
Description: as §3, §4, §5, §6, §7

SJSA-1 = assay: Protocol B: SJSA-1 CellTiter-Glo Luminescent Cell Viability Assay; details: Homo sapiens, SJSA-1, read-out: SJSA1 IC50 (μM) (Protocol B)

| SMILES | bone marrow tumour burden (FACS) ([1]; SKP2 overexpressed) | leukemic tumour cells in the bone marrow (FACS) ([1]; absence of SKP2 overexpression) | apoptosis (cells with activated caspase-3) (AML cell lines; HNT-34, OCI-AML3, ML-2, GDM-1 (non-apoptotic), 48-hour treatment with 100 nM) [%] | cells staining positive for activated caspase-3 (AML cell lines; MV4-11, EOL-1, Molm-13, OCI-AML-2 and BDCM (apoptotic), 48-hour treatment with 100 nM) [%] | increase in activated caspase-3 (AML cell lines; panel of 12 AML cell lines, negative control KG-1, TP53 mutant) | effect of SKP2 overexpression on cytotoxicity / sensitivity (MV4-11 cells [2]) | systemic tumour burden (circulating human DNA) (MV4-11 cells [3]) | level of apoptosis (cleaved caspase-3), single agent (OCI-AML3 cells) | level of apoptosis (cleaved caspase-3), single agent (OCI-AML3 cells; listed as Compund 1) | effect of SKP2 knockdown on cytotoxicity (OCI-AML3 AML cell line; non-apoptotic AML cell line) | increase of apoptosis on SKP2 knockdown compared to control (no SKP2 knockdown) (OCI-AML3 AML cell line; non-apoptotic AML cell line (high basal SKP2), 0.1 μM) | sensitivity of SKP2 low blasts compared with SKP2 high blasts [4] | effect of SKP2 overexpression on apoptosis / cell death (MV4-11 cells [5]) | IC50 (SJSA-1) [µM] |
| --- | --- | --- | --- | --- | --- | --- | --- | --- | --- | --- | --- | --- | --- | --- |
| CC[C@@](O)(c1cc(F)c2c(c1)C(=O)N([C@H](c1ccc(Cl)cc1)[C@H](C)C(=O)O)[C@@]2(OC)c1ccc(Cl)cc1)C1CCOCC1 [Compound 1, (2S,3S)-3-(4-chlorophenyl)-3-[(1R)-1-(4-chlorophenyl)-7-fluoro-5-[(1S)-1-hydroxy-1-(oxan-4-yl)propyl]-1-methoxy-3-oxo-2,3-dihydro-1H-isoindol-2-yl]-2-methylpropanoic acid] | does not reduce the number of leukemic cells; also recorded: no effects | reduces the number of leukemia cells; also recorded: significant decrease | < 30 | > 30 | observed in all cell lines except the negative control | reduces Compound 1-induced cytotoxicity; also recorded: resistant | only low levels of circulating human DNA | did not induce a high level of apoptosis | does not induce substantial levels of cell death by apoptosis | increases Compound 1-induced cytotoxicity | about 30% | more sensitive | reduces Compound 1-dependent cell death; also recorded: strong reduction in apoptosis |  |
| [2H]C([2H])(O)C1(C([2H])([2H])O[C@]2(c3ccc(Cl)cc3)c3c(F)cc(C(O)(CC)c4cn(C)cn4)cc3C(=O)N2Cc2ccc(C#N)cn2)CC1 (some centres unmarked) [Example 440] |  |  |  |  |  |  |  |  |  |  |  |  |  | 1.9 |
